Measurements: ChEMBL document CHEMBL1201862, “PubChem BioAssay data set” (2004)
Active and inactive are the calls of the source.

Columns and labels:
[1] = target: Kappa-type opioid receptor (Homo sapiens, UniProt P41145); type: functional
[2] = viability loss in THP-1 monocytes – THP-1 cells, cytotoxicity control for Vif-APOBEC3G degradation inhibitor project, dose response (AID 1117359); type: functional; settings: THP-1
[3] = target: Delta-type opioid receptor (Homo sapiens, UniProt P41143); assay: HTS Image-Based Screen for Antagonists of the DOR Receptor. [Related pubchem assays (depositor defined):AID1777, AID1785, AID1786, AID2133]; type: functional;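 also: U2OS cells expressing DOR stimulated with 100 nM SNC80 agonist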
Sequence of Delta-type opioid receptor (P41143 whole entry): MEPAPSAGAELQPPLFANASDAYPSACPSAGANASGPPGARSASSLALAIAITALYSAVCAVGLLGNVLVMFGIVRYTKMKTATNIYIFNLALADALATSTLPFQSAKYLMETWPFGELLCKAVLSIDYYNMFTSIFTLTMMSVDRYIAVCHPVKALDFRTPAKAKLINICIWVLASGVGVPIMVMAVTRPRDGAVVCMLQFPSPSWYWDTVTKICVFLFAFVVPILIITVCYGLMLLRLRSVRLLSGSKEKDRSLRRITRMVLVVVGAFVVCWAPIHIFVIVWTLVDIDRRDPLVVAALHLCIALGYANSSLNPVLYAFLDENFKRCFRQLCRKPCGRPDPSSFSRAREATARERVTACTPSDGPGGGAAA

Fatty acid synthase = Fatty acid synthase (Homo sapiens, UniProt P49327); assay: inhibition of human FAS-TE enzyme activity – biochemical, kinetic fluorescence intensity, dose response (AID 624326); type: functional;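 also: rate of fluorescence rise from hydrolysis of a fluorogenic O-methyl fluorescein ester substrate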
Sequence of Fatty acid synthase (P49327 whole entry): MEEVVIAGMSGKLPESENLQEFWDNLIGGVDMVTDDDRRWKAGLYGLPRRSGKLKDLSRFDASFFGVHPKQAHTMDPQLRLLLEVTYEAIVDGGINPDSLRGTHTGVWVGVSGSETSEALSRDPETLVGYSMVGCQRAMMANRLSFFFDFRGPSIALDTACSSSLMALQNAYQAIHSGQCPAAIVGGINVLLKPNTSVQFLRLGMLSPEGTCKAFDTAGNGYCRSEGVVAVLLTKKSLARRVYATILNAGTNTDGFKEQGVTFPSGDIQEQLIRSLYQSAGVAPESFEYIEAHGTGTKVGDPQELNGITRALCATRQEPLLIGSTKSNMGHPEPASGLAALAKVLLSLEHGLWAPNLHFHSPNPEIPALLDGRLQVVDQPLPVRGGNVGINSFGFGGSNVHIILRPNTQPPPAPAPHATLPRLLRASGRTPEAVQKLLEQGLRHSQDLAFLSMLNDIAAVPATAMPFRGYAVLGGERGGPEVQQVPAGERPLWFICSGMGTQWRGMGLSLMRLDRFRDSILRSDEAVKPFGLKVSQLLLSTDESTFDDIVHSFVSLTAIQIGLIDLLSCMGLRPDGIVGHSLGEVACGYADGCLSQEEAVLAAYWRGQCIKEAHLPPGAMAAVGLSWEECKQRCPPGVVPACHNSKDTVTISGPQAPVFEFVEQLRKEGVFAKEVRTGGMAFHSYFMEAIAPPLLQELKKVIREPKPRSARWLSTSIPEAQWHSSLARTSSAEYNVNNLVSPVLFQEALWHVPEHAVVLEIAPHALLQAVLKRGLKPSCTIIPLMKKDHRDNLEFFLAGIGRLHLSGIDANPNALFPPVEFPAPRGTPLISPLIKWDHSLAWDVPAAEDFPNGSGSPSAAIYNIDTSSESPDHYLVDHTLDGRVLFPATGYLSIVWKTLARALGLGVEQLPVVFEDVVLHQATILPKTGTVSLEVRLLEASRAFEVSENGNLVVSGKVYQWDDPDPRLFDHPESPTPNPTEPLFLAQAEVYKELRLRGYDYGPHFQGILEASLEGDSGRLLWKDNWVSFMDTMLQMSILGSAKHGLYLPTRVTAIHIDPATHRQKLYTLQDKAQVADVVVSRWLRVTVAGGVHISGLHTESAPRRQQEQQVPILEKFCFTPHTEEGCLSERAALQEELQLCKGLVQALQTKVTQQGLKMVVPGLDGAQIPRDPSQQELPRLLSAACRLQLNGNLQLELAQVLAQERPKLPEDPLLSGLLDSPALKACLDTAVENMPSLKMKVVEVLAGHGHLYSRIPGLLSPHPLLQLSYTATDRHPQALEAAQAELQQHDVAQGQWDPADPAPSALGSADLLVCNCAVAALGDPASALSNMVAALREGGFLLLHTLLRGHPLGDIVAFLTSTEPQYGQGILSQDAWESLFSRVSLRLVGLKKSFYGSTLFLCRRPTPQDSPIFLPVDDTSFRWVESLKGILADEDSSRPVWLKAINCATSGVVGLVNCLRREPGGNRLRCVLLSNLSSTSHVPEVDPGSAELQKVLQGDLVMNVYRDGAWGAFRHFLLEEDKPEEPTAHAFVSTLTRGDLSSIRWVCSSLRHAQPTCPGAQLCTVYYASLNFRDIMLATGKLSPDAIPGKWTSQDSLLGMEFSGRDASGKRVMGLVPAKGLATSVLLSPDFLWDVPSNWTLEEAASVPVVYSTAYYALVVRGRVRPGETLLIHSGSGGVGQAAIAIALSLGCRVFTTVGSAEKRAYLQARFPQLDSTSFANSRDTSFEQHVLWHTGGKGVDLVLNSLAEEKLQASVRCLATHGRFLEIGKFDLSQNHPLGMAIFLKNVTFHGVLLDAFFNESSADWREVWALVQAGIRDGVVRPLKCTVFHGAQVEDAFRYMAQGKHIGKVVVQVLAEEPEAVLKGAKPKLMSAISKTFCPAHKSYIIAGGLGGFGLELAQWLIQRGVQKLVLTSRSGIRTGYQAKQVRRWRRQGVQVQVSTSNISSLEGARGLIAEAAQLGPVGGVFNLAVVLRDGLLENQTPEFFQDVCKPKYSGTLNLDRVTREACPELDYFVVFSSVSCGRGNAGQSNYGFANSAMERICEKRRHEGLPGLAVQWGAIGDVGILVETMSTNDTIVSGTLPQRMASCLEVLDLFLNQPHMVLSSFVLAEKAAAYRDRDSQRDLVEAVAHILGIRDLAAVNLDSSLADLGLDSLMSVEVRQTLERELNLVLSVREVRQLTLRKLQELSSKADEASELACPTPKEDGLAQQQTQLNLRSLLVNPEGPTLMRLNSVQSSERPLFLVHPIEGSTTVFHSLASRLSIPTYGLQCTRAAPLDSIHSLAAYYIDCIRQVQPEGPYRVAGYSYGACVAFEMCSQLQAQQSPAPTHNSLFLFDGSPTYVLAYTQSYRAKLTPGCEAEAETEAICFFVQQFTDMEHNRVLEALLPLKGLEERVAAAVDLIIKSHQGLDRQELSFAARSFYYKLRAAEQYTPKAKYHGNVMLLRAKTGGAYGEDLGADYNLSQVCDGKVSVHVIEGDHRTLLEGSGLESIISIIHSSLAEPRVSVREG

[4] = target: T1, High affinity choline transporter 1 (Homo sapiens, UniProt Q9GZV3); assay: human choline transporter blockers, potency – cell-based, 5-point CRC, membrane potential dye, dose response (AID 504840); type: functional
T1 sequence (Q9GZV3 whole entry): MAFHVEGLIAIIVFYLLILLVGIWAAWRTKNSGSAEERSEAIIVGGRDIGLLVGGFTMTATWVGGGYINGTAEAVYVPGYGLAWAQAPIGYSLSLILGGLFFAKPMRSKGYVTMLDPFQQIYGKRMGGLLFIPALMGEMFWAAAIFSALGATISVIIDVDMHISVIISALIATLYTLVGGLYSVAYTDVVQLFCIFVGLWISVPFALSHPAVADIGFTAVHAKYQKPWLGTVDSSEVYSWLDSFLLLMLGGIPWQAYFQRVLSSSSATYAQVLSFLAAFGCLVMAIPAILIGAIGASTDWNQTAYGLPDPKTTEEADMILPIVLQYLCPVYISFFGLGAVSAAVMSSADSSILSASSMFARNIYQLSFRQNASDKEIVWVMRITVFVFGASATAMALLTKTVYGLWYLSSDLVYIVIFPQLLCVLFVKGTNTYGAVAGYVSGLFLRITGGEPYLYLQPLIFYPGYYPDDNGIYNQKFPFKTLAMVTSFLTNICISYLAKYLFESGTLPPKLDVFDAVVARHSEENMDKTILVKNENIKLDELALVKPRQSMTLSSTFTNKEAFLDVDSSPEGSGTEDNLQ

[5] = target: T2, Rac GTPase-activating protein 1 (Homo sapiens, UniProt Q9H0H5); assay: blockers of MgcRacGAP-driven Rac1 GTP hydrolysis – biochemical, ADP Hunter fluorescence, primary and confirmatory, confirmation (AID 624330); type: functional
T2 sequence (Q9H0H5 whole entry): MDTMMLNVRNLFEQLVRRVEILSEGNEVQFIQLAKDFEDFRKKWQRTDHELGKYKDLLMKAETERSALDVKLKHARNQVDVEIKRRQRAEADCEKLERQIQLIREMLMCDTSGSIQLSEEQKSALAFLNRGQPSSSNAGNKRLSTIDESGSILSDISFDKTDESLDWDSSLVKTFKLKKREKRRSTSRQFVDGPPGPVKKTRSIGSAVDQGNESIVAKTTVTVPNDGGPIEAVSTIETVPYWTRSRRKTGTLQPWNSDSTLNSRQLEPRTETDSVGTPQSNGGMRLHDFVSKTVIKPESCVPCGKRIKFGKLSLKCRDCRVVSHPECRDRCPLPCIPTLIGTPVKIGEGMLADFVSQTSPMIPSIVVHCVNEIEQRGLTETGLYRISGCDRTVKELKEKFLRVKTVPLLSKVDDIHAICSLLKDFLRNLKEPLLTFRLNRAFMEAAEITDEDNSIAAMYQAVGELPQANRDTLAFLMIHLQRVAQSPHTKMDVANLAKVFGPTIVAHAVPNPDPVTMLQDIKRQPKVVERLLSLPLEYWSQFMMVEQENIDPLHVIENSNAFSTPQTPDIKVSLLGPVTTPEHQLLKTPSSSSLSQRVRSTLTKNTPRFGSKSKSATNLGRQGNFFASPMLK

[6] = target: T3, Tyrosine-protein phosphatase non-receptor type 22 (Homo sapiens, UniProt Q9Y2R2); assay: lymphoid phosphatase LYP inhibitors – biochemical, selectivity assay for STEP inhibitor project, dose response (AID 624241); type: functional
T3 sequence (Q9Y2R2 whole entry): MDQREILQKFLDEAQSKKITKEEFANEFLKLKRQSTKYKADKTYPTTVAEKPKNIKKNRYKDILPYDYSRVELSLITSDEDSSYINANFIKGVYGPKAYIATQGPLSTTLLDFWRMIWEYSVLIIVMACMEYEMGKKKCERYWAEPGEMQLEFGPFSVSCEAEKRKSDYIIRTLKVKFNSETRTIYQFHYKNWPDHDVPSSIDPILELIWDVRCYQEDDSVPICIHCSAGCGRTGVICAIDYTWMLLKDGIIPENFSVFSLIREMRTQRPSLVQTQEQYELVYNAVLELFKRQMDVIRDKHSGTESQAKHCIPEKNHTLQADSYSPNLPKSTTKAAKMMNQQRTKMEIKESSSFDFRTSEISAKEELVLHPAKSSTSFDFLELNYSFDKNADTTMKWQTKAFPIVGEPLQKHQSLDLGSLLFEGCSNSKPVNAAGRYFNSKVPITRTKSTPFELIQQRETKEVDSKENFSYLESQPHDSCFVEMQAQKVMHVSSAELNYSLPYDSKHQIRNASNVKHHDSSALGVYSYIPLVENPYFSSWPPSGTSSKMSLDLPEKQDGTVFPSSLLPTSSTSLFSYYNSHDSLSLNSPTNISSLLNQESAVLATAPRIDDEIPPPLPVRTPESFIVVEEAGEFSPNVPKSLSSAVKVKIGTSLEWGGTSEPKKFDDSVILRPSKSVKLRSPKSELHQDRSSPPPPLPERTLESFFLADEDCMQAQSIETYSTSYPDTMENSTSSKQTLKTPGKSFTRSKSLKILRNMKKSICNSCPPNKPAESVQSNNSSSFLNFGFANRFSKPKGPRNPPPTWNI

[7] = target: Polyadenylate-binding protein 1 (Homo sapiens, UniProt P11940); assay: MLLE binding blockers, Cy5 peptide tracer – biochemical, fluorescence polarization, Cy5-PAM2 peptide, secondary, miRNA deadenylation inhibitor project, dose response (AID 602260); type: functional; settings: read-out: IC50_Mean
Sequence of Polyadenylate-binding protein 1 (P11940 whole entry): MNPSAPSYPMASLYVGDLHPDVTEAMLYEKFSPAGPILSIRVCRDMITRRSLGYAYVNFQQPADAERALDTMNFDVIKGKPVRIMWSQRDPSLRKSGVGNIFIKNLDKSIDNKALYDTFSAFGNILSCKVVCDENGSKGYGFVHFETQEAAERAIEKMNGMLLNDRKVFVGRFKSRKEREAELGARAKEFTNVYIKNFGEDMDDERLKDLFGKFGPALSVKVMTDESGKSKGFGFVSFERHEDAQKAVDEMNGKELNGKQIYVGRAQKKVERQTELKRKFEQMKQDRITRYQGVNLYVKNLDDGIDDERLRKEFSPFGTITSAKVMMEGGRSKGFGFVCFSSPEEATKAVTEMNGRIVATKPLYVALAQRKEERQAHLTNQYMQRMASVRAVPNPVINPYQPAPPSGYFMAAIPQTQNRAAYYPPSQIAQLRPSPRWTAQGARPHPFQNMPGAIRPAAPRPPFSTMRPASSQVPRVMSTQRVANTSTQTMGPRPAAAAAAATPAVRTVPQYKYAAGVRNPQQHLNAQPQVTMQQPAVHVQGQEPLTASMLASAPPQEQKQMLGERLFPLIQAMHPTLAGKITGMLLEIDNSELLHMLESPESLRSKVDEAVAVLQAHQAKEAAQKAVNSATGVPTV

Caspase-8 = Caspase-8 (Homo sapiens, UniProt Q14790); assay: inhibitors of purified CASP8 protease – biochemical, Z-IETD-R110 fluorescence, cherry-picked samples, selectivity assay for caspase-6 inhibitor project, dose response (AID 743294)
Sequence of Caspase-8 (Q14790 217-374 limits assumed): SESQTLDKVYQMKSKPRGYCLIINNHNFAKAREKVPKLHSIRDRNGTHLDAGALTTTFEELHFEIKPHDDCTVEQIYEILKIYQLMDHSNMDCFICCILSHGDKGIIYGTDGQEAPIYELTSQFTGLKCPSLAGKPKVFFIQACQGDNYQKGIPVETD
Sequence of Caspase-8 (Q14790 385-479 limits assumed): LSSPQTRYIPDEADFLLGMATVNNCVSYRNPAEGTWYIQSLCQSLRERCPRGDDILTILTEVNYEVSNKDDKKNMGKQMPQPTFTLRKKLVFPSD

Sequence of Kappa-type opioid receptor (P41145 whole entry): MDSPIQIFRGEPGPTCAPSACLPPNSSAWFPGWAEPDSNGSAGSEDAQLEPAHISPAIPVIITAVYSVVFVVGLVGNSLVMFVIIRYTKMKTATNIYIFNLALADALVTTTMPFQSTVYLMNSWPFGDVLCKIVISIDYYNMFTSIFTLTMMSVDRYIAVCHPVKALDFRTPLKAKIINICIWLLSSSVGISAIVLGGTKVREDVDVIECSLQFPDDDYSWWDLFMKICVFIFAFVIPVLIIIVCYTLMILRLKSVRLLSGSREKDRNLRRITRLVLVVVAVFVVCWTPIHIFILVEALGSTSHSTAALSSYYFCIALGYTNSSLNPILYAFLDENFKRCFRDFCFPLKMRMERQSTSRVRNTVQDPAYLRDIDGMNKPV

Row | SMILES | IC50 [1] | CC50 [2] | IC50 [3] | IC50 (Fatty acid synthase) | IC50 [4] | IC50 [5] | IC50 [6] | IC50 [7] | AC50 (Caspase-8)
1 | O=[N+]([O-])c1c(Nc2ccccc2O)cc(Cl)c2nonc12 | 2.89 µM (active) | 12.2 µM (active) | 14.7 µM (inactive) | 7.45 µM (active) | 13.2 µM (active) | – | – | – | –
2 | O=S(=O)(O)c1cc(O)c2cc(Nc3ccccc3)ccc2c1 | – | – | – | – | – | 37.9 µM (active) | 5.09 µM (active) | > 66 µM (inactive) | > 70 µM (inactive)
